Reference: paper PMC10488193, “Evaluation of the Chemical Stability, Membrane Permeability and Antiproliferative Activity of Cyclic Diarylheptanoids from European Hornbeam (Carpinus betulus L.)” (International Journal of Molecular Sciences, 2023)
“Also recorded” adds a separate entry of the source. Marks after values point to notes of the source that are not given here.

Key:
[1] = Storage stability in solutions and hornbeam bark extracts (UHPLC-DAD); type: physicochemical; conditions: for k / t1/2: storage 23 weeks
Experimental: For the analysis of the samples from the chemical stability as well as the PAMPA studies, sample concentrations were determined using our previously developed ultrahigh-performance liquid chromatography–diode array detection (UHPLC-DAD) method validated for linearity, precision and accuracy. Briefly, an ACQUITY UPLC H-Class PLUS System hyphenated with a quaternary solvent delivery pump (QSM), an auto-sampler manager (FTN), a column compartment (CM) and a photodiode array (PDA) detector (Waters Corporation) was employed. Stationary phase: Acquity BEH C18 column (100 × 2.1 mm i.d., 1.7 µm; Waters Corporation), column temperature: 30 °C. The mobile phase consisted of 0.3% acetic acid in water (eluent A) and acetonitrile (eluent B). The following gradient elution was applied at a flow rate of 0.3 mL/min: 0 min 12.0% B, 19.0 min 13.5% B, 25.5 min 75.0% B, 26.0 min 100.0% B, 28.0 min 100.0% B, 28.5 min 12.0% B.
We used the following equations to calculate the first-order reaction rate constant (k) and the half-life (t1/2) indicating the time required to reduce the concentration of diarylheptanoids by 50% [29]:ln (ct/c0) = −k × t(1) t1/2 = −ln 0.5 × k^−1(2) where ct is the concentration of the diarylheptanoids at time t, c0 is the initial concentration, k is the reaction rate constant, t is the treatment time.
The chemical stability of the isolated compounds in solutions was examined at a concentration of 50 µg/mL in methanol and water (in the latter case using methanol as co-solvent, final composition: water-methanol 90:10, v/v). Furthermore, the methanol and ethyl acetate extracts of C. betulus bark (concentration 4 mg/mL) were also studied in order to assess the effects of the accompanying substances. The storage stability studies were performed at a neutral pH value. All solutions were filtered through Phenex-RC 15 mm, 0.2 μm syringe filters (Gen-Lab Ltd., Budapest, Hungary). The samples were prepared in triplicate and stored protected from light at 22 ± 2.0 °C, 5 ± 1.5 °C and −15 ± 2.0 °C for 23 weeks. Quantities of the analytes of interest were quantified at weeks 12 and 23 using the abovementioned UHPLC-DAD method (see Section 3.4).
The effects of the temperature and the medium (i.e., solvent and accompanying substances) were analysed through one-way analysis of variance (ANOVA) followed by Tukey’s post hoc HSD test (p < 0.05). To establish the kinetic parameters t1/2 and k, Equations (1) and (2) were applied, respectively.

[2] = tested on: HepG2 (hepatocellular carcinoma); test: In vitro antiproliferative activity, Alamar Blue assay; type: cell-based; conditions: Homo sapiens; HepG2, 24 h treatment, then three days culture, n = 2; read-out: IC50 ± SD
Experimental: (§1) For the experiments, the following human cell lines were used: A2058 (melanoma, derived from metastatic site: lymph node), HepG2 (hepatocellular carcinoma), U87 (glioblastoma), HT-29 (colorectal carcinoma) and HL-60 (acute promyelocytic leukaemia). Cell lines were generous gifts from Dr. […] (Department of Experimental Pharmacology, National Institute of Oncology, Budapest, Hungary). […] The cultures were maintained at 37 °C in a humidified atmosphere with 5% CO2. The cells were grown to confluency and then divided into 96-well tissue culture plates (Sarstedt, Nümbrecht, Germany) with an initial cell number of 5000 cells/well. Cells were incubated at 37 °C in a 5% CO2 humidified atmosphere overnight. Before the assay, 50 μL of the supernatant was removed and replaced with a 50 μL serum-free medium (SFM). […] The cells were treated for 24 h with the compounds and negative control cells (no compound control) were treated with SFM only (incubated at 37 °C). […] The percentage of cytostasis was calculated with the following equation: […] Data were evaluated with Excel (version: 365; Microsoft, Redmond, WA, USA) and the curves were defined using Microcal OriginPro (version: 2018; OriginLab, Northampton, MA, USA) software. In each case, two independent experiments were carried out with four parallel measurements and the mean IC50 values together with ±SD were represented. The Excel (version: 365) (Microsoft, Redmond, WA, USA) and Microcal OriginPro (version: 2018) (OriginLab, Northampton, MA, USA) softwares were used for data evaluation.

[3] = tested on: U87 (glioblastoma); test: as above; type: cell-based; conditions: Homo sapiens; U87, 24 h treatment, then three days culture, n = 2; read-out: IC50 ± SD
Experimental: as §1

[4] = tested on: HT-29 (colorectal carcinoma); test: as above; type: cell-based; conditions: Homo sapiens; HT-29, 24 h treatment, then three days culture, n = 2; read-out: IC50 ± SD
Experimental: as §1

[5] = tested on: A2058 (melanoma, derived from metastatic site: lymph node); test: as above; type: cell-based; conditions: Homo sapiens; A2058, 24 h treatment, then three days culture, n = 2; read-out: IC50 ± SD
Experimental: as §1

[6] = tested on: HL-60 (acute promyelocytic leukaemia); test: as above; type: cell-based; conditions: Homo sapiens; HL-60, 24 h treatment, then three days culture, n = 2; read-out: IC50 ± SD
Experimental: as §1

[7] = 12 weeks, 5 °C, EE (ethyl acetate extract of bark)
[8] = 12 weeks, 5 °C, EM (methanol extract of bark)
[9] = 12 weeks, 5 °C, SA (aqueous solution)
[10] = 12 weeks, 5 °C, SM (methanol solution)
[11] = 12 weeks, 22 °C, EE (ethyl acetate extract of bark)
[12] = 12 weeks, 22 °C, EM (methanol extract of bark)
[13] = 12 weeks, 22 °C, SA (aqueous solution)
[14] = 12 weeks, 22 °C, SM (methanol solution)
[15] = 12 weeks, −15 °C, EE (ethyl acetate extract of bark)
[16] = 12 weeks, −15 °C, EM (methanol extract of bark)
[17] = 12 weeks, −15 °C, SA (aqueous solution)
[18] = 12 weeks, −15 °C, SM (methanol solution)
[19] = 23 weeks, 5 °C, EE (ethyl acetate extract of bark)
[20] = 23 weeks, 5 °C, EM (methanol extract of bark)
[21] = 23 weeks, 5 °C, SA (aqueous solution)
[22] = 23 weeks, 5 °C, SM (methanol solution)
[23] = 23 weeks, 22 °C, EE (ethyl acetate extract of bark)
[24] = 23 weeks, 22 °C, EM (methanol extract of bark)
[25] = 23 weeks, 22 °C, SA (aqueous solution)
[26] = 23 weeks, 22 °C, SM (methanol solution)
[27] = 23 weeks, −15 °C, EE (ethyl acetate extract of bark)
[28] = 23 weeks, −15 °C, EM (methanol extract of bark)
[29] = 23 weeks, −15 °C, SA (aqueous solution)
[30] = 23 weeks, −15 °C, SM (methanol solution)

Compound | concentration as compared to the initial value [1, 7] | concentration as compared to the initial value [1, 8] | concentration as compared to the initial value [1, 9] | concentration as compared to the initial value [1, 10] | concentration as compared to the initial value [1, 11] | concentration as compared to the initial value [1, 12] | concentration as compared to the initial value [1, 13] | concentration as compared to the initial value [1, 14] | concentration as compared to the initial value [1, 15] | concentration as compared to the initial value [1, 16] | concentration as compared to the initial value [1, 17] | concentration as compared to the initial value [1, 18] | concentration as compared to the initial value [1, 19] | concentration as compared to the initial value [1, 20] | concentration as compared to the initial value [1, 21] | concentration as compared to the initial value [1, 22] | concentration as compared to the initial value [1, 23] | concentration as compared to the initial value [1, 24] | concentration as compared to the initial value [1, 25] | concentration as compared to the initial value [1, 26] | also measured
O=C1CCc2ccc(O)c(c2)-c2cc(ccc2O)C[C@@H](O)[C@H](O)C1 [Compound 3, giffonin X] | 100.8 ± 0.5 ^#bcd % | 100.2 ± 1.1 ^bcd % | 99.3 ± 0.1 ^#bcd % | 99.0 ± 0.1 ^#bcd % | 101.6 ± 2.2 ^#bc % | 102.7 ± 0.9 ^#bc % | 96.2 ± 0.1 ^#bcd % | 84.5 ± 7.4 ^#a % | 103.5 ± 0.2 ^b % | 101.6 ± 3.1 ^#bc % | 100.1 ± 0.6 ^bcd % | 100.4 ± 1.2 ^bcd % | 100.9 ± 1.3 ^bcd % | 93.8 ± 1.3 ^#de % | 99.1 ± 0.1 ^#bcd % | 81.9 ± 1.0 ^#a % | 95.7 ± 0.5 ^#cd % | 95.6 ± 2.4 ^#cd % | 87.6 ± 0.7 ^#ae % | 67.1 ± 7.5 % | k ([1]; 5 °C, SA (aqueous solution)): 5.0 × 10^−4 Week^−1; t1/2 ([1]; 5 °C, SA (aqueous solution)): 1386.29 Week; k ([1]; 5 °C, SM (methanol solution)): 7.10 × 10^−3 Week^−1; t1/2 ([1]; 5 °C, SM (methanol solution)): 97.63 Week; k ([1]; 22 °C, SA (aqueous solution)): 5.90 × 10^−3 Week^−1; t1/2 ([1]; 22 °C, SA (aqueous solution)): 117.48 Week; k ([1]; 22 °C, SM (methanol solution)): 1.85 × 10^−2 Week^−1; t1/2 ([1]; 22 °C, SM (methanol solution)): 37.47 Week; concentration as compared to the initial value [1, 27]: 101.1 ± 2.7 ^#bcd %; concentration as compared to the initial value [1, 28]: 97.6 ± 3.2 ^bcd %; concentration as compared to the initial value [1, 29]: 97.9 ± 2.9 ^bcd %; concentration as compared to the initial value [1, 30]: 95.8 ± 0.1 ^#cd %; k ([1]; −15 °C, SM (methanol solution)): 1.60 × 10^−3 Week^−1; t1/2 ([1]; −15 °C, SM (methanol solution)): 433.22 Week; IC50 [2]: > 100 µM; IC50 [3]: > 100 µM; IC50 [4]: > 100 µM; IC50 [5]: > 100 µM; IC50 [6]: > 100 µM
O=C1CCC(=O)C(O)Cc2ccc(O)c(c2)-c2cc(ccc2O)C1 (stereo not drawn) [Compound 4, 3,12,17-trihydroxytricyclo [12.3.1.1^2,6]nonadeca-1(18),2(19),3,5,14,16-hexaene-8,11-dione] | 102.0 ± 1.7% | 105.5 ± 2.5% | 100.5 ± 0.7 ^ab % | 100.1 ± 0.6 ^ab % | 106.3 ± 2.6 % | 120.9 ± 2.6 % | 100.8 ± 1.1 ^a % | 100.1 ± 0.5 ^ab % | 103.5 ± 0.8% | 102.8 ± 3.3 % | 98.6 ± 1.3 ^b % | 99.1 ± 0.7 ^ab % | 107.8 ± 2.6 % | 107.0 ± 4.1% | 100.0 ± 0.5 ^ab % | 100.3 ± 0.5 ^ab % | 108.5 ± 2.7 % | 135.7 ± 9.7 % | 100.3 ± 0.6 ^ab % | 100.2 ± 0.5 ^ab % | concentration as compared to the initial value [1, 27]: 108.0 ± 2.2 %; concentration as compared to the initial value [1, 28]: 103.6 ± 3.5%; concentration as compared to the initial value [1, 29]: 99.9 ± 1.2 ^ab %; concentration as compared to the initial value [1, 30]: 99.8 ± 1.2 ^ab %; storage stability in methanol and aqueous solutions (in words) ([1]; SM and SA, −15, 5, 22 °C, weeks 12 and 23): stable; also recorded: good stability; IC50 [2]: > 100 µM; IC50 [3]: > 100 µM; IC50 [4]: > 100 µM; IC50 [5]: > 100 µM; IC50 [6]: > 100 µM
